Measured values taken from BindingDB's records for doi:10.7270/Q2SJ1J25 (Burnham Center For Chemical Genomics, 2010).
pEC50: −log10 of the molar value.

Biological target: Alkaline phosphatase, placental type (Homo sapiens, UniProt P05187)
Experiment: activation of placental alkaline phosphatase – biochemical, uHTS hits, mouse IAP activator project, dose response (AID 488878)

Chain of Alkaline phosphatase, placental type (P05187 whole entry, looked up): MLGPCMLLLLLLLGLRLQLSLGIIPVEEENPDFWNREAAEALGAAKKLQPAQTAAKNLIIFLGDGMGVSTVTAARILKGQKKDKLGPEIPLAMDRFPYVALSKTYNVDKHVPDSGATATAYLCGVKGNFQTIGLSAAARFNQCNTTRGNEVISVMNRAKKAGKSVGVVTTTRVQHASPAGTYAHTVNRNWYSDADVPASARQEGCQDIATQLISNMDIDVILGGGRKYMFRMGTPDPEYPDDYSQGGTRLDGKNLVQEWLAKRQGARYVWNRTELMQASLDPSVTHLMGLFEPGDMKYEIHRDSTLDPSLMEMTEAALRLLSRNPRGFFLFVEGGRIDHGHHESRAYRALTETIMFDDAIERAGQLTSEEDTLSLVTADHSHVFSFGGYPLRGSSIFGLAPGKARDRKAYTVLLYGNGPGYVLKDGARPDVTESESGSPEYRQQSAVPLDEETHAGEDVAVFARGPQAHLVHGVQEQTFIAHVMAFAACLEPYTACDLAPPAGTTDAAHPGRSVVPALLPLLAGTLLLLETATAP

| SMILES | pEC50 |
| --- | --- |
| O=C(NN=CC1=CC(=O)C(=O)CC1)NN=CC1=CC(=O)C(=O)CC1 [1,3-bis[[(Z)-(3-hydroxy-4-oxocyclohexa-2,5-dien-1-ylidene)methyl]amino]urea] | 4.53 |
| O=C1CC(=O)c2c(O)cc(O)c(O)c2C1=O [4,5,7,8-tetrahydroxy-1,2-naphthoquinone] | < 4.00 |
| C[C@@H]1O[C@@H](O[C@H]2[C@H](O)[C@@H](O)[C@H](Oc3c(-c4ccc(O)c(O)c4)oc4cc(O)cc(=O)c-4c3O)O[C@@H]2CO)[C@H](O)[C@H](O)[C@H]1O [quercetin-3-rham(4)-gluc] | 4.65 |
| O=c1ccc2cc3c([nH]c4ccc(Br)cc43)oc-2c1O [9-bromo-4-hydroxy-6H-[1]benzopyrano[2,3-b]indol-3-one] | 4.62 |
| C#CCOCCOCCOCCNc1nc(N2CCN(C(=O)CCCCCCCCCCNC(=O)Cn3cc(CCCCCN)nn3)CC2)nc(N2CCN(C(=O)CCCCCCCCCCNC(=O)Cn3cc(C[C@@H](C)O)nn3)CC2)n1 [KG-TG] | < 4.00 |
| Oc1ccc(CN=Nc2cc(N3CCCC3)nc(N3CCCC3)n2)cc1O [(4Z)-4-[[2-(2,6-dipyrrolidin-1-ylpyrimidin-4-yl)hydrazinyl]methylidene]-2-hydroxycyclohexa-2,5-dien-1-one] | < 4.00 |
| CN(CCO)c1ccc(CN=Nc2ccc([N+](=O)[O-])cc2S(=O)(=O)Nc2ccccc2C(=O)O)cc1 | 4.59 |
| C#CCOCCOCCOCCNc1nc(N2CCN(C(=O)CCCCCCCCCCNC(=O)[C@@H](CCC(=O)O)n3cc(CCCCCN)nn3)CC2)nc(N2CCN(C(=O)CCCCCCCCCCNC(=O)[C@H]([C@@H](C)CC)n3cc(CCCCCN)nn3)CC2)n1 [KI-KE] | < 4.00 |

Next, values leading:

| pEC50 | SMILES |
| --- | --- |
| 4.18 | Cc1cc(=O)[nH]c(N=NCc2ccc(O)c(O)c2)n1 [MLS001194906] |
| < 4.00 | O=C1C=CC(/C=C/c2nc(O)c([N+](=O)[O-])c(=O)[nH]2)C=C1O (stereo not drawn) [SMR000524347] |
| 4.63 | Nc1c(/C=C2/C=CC(=O)C(O)=C2)c(=O)nc2sc(CC(=O)N3CCCCC3)nn12 [MLS001139223] |
| 4.08 | CS(=O)(=O)c1ccc2c(c1)sc1nc(=O)c(/C=C3/C=CC(=O)C(O)=C3)c(N)n12 [SMR000415838] |
| 5.01 | Nc1c(/C=C2/C=CC(=O)C(O)=C2)c(=O)nc2sc(CC(=O)N3CCCC3)nn12 [MLS001139292] |
